Data from publication PMC10096123, “14-Substituted Diquinothiazines as a New Group of Anticancer Agents” (Molecules, 2023).
“Also recorded” adds a separate entry of the source.

Tests used:
HCT116 cells = assay: 72-h MTT viability assay, HCT116; format: cell-based, human; conditions: 72 h incubation, mean of 3 experiments +/-SD
Text: (§1) The IC50 for cell viability was described with a dose of the drug, with a 50% reduction in the whole population, when compared to the untreated controls. The obtained results allow for a comparison of different compounds, using the same or different targeted cell lines. Cell survival fractions (SF), followed by the MTT 72-h viability assay for the HCT116 and SH-5YSY cells, are presented in the Supplementary File (Figure S1).
(§2) For cytological studies, human cancer cell lines were chosen, with special emphasis on the colorectal, HCT116, and neuroblastoma SH-5YSY cell lines, as well as lung normal epithelial BEAS-2B and cancer H1299 and A549 cancer cell lines (all obtained from the ATTC collection; Manassas, VA, USA). The cells were harvested under the standard conditions in incubator (5% CO2, 37 °C and 60% humidity; Panasonic model MCO-19 AIC). Cells were cultured in T75 mL sterile bottles (Sartedt), using DMEM-F12 medium (Merck, Poznań, Poland) supplemented with 10% of Fetal Bovine Serum (EURx, Gdańsk, Poland). During the experimental procedure, each cell line wasn’t more than 60–80% confluenced, no older than maximal number of passages 30. For adherent cell passages, the enzyme trypsin working solution, prepared in sodium phosphate buffer saline (PBS, pH = 7.4; PAN-Biotech Gmbh, Aidenbach, Germany), was used. The tested compounds were prepared as […] stocks in 100% DMSO (Merck, Poznań, Poland), and were stored at −20 °C. Before use in cytological studies, the working solution of each compound was prepared directly in complete DMEM-F12 medium. A positive-control, anticancer drug, etoposide (Merck, Poznań, Poland), was dissolved and prepared as solutions with doses of 20, 10, 5, 2.5, 1.25, 0.63 µM (0 µM for control, untreated cells in DMEM-F12 without any tested compound additions), respectively.
(§3) HCT116 and SH-5YSY cells collected after trypsinization were counted under the Bürker’s chamber, and 2000 or 5000 cells were seeded on each well of the 96-well-format sterile plate (Sarstedt, Nümbrecht, Germany), in 100 µL of complete DMEM-F12 medium, respectively. Twenty-four hours before compound addition, the cells were monitored directly on plates; only well-attached cells were used for treatments with background controls (DMSO with final maximal concentration of 1%) and untreated controls. The normal lung (BEAS-2B) and cancer (H1299 and […]) cell lines were cultured and prepared for viability MTT assay in similar way. To treat wells, 100 µL of tested compounds in fresh medium were added at concentration range of 100, 50, 25, 12.5, 6.25, 3.13 µM (0 µM for control, untreated cells in DMEM-F12 without any tested compound additions). An etoposide as a positive control, as anticancer drug, was prepared in similar way. Followed by 72 h of incubation, the viability assay was performed according to the producer protocol (Promega, Madison, WI, USA), where the medium and compounds were removed and cells were washed with PBS solution. A yellow tetrazolium salt (3-(4,5-dimethylthiazol-2-yl)-2,5-diphenyltetrazolium bromide solution (0.5 mg/mL) in serum and phenol red-free DMEM (Merck, Poznań, Poland) was added to each well on plates at a volume of 50 µL for 2–3 h of darkness, at 37 °C incubation. The purple formazan crystals were produced only by the viable cells, containing NAD (P)H-dependent oxidoreductase enzymes, which reduce the MTT. The crystals were dissolved in acidic (0.04 M HCl) 2-propanolol solution (Merck, Poznań, Poland) after addition of 75 µL of dissolving mixture to each well on plates for 5–10 min in darkness and at room-temperature (RT) incubation. The absorption at 570 nm was measured directly using multiplate reader (Epoch, BioTek, Winooski, VT, USA). Each time, the biological experiments were repeated three times.
(§4) Obtained absorbance was analyzed for proliferation and survival fraction (SF) assessments, where tested samples were compared to the untreated controls (100%). […]

SH-SY5Y cells = assay: 72-h MTT viability assay, SH-SY5Y; format: cell-based, human; conditions: 72 h incubation, mean of 3 experiments +/-SD, no effect = viability (SF) similar to control, about 100%; for IC50: Homo sapiens, SH-SY5Y
Text: as §1, §2, §3, §4

A549 cells = assay: 72-h MTT viability assay, A549; format: cell-based, human; conditions: 72 h incubation, mean of 3 experiments +/-SD
Text: as §1, §2, §3, §4

H1299 cells = assay: 72-h MTT viability assay, H1299; format: cell-based, human; conditions: 72 h incubation, mean of 3 experiments +/-SD
Text: as §1, §2, §3, §4

BEAS-2B cells = assay: 72-h MTT viability assay, normal lung epithelial BEAS-2B; format: cell-based, human; conditions: 72 h incubation, mean of 3 experiments +/-SD, no effect = viability (SF) similar to control, about 100%; for IC50: Homo sapiens, BEAS-2B
Text: as §1, §2, §3, §4

[1] = test system: HCT116, SH-SY5Y, A549, H1299 cell lines; assay: 72-h MTT viability assay, all cell lines used in the study (summary statements); format: cell-based, human; conditions: for anticancer activity (ranking within the series): HCT116 and SH-SY5Y, in words
Text: as §1, §2
HCT116 and SH-5YSY cells collected after trypsinization were counted under the Bürker’s chamber, and 2000 or 5000 cells were seeded on each well of the 96-well-format sterile plate (Sarstedt, Nümbrecht, Germany), in 100 µL of complete DMEM-F12 medium, respectively. Twenty-four hours before compound addition, the cells were monitored directly on plates; only well-attached cells were used for treatments with background controls (DMSO with final maximal concentration of 1%) and untreated controls. The normal lung (BEAS-2B) and cancer (H1299 and […]) cell lines were cultured and prepared for viability MTT assay in similar way. […] The absorption at 570 nm was measured directly using multiplate reader (Epoch, BioTek, Winooski, VT, USA). […]
as §4

| IC50 (HCT116 cells; Homo sapiens, HCT-116, 72 h) | IC50 (SH-SY5Y cells) | IC50 (A549 cells; Homo sapiens, A549, 72 h) | IC50 (H1299 cells; Homo sapiens, NCI-H1299, 72 h) | IC50 SH-SY5Y (SH-SY5Y cells) | IC50 (HCT116 cells) | melting point | IC50 (H1299 cells) | IC50 ([1]; Homo sapiens, range over the cancer cell lines, read-out: IC50 values against all cell lines used in the study) | IC50 (A549 cells) | IC50 (A549 cells; listed as etopiside) | Compound | IC50 (BEAS-2B cells) | IC50 BEAS-2B (BEAS-2B cells) | anticancer activity (ranking within the series) [1] |
| --- | --- | --- | --- | --- | --- | --- | --- | --- | --- | --- | --- | --- | --- | --- |
| 11.1 ± 3.39 µM | 6.5 ± 1.22 µM | 13.3 ± 2.23 µM | 8.1 ± 1.83 µM | – | – | – | – | – | – | – | c1ccc2c3c(cnc2c1)Sc1cnc2ccccc2c1N3CCN1CCCC1 [Compound 2a, 14-(pyrrolidinylethyl)diquinothiazine] | 84.5 ± 11.1 µM | – | – |
| 9.4 ± 4.41 µM | 7.7 ± 2.59 µM | 12.4 ± 2.25 µM | 5.3 ± 1.04 µM | – | – | – | – | – | – | – | O=C1CCCN1CCCN1c2c(cnc3ccccc23)Sc2cnc3ccccc3c21 [Compound 2b, 14-(pyrrolidinonylpropyl)diquinothiazine] | 83.5 ± 12.3 µM | – | – |
| – | 14.3 ± 1.49 µM | 14.7 ± 2.81 µM | 7.5 ± 1.97 µM | – | – | – | – | – | – | – | c1ccc2c3c(cnc2c1)Sc1cnc2ccccc2c1N3CCN1CCCCC1 [Compound 2c] | – | no effect | – |
| 23.1 ± 1.37 µM | 13.5 ± 2.69 µM | 20.7 ± 2.25 µM | 8.9 ± 1.02 µM | – | – | – | – | – | – | – | c1ccc2c3c(cnc2c1)Sc1cnc2ccccc2c1N3CCN1CCOCC1 [Compound 2d] | 118 ± 18.4 µM | – | – |
| 10.3 ± 1.82 µM | 4.9 ± 0.87 µM | 10.1 ± 2.26 µM | 7 ± 1.85 µM | – | – | – | – | – | – | – | c1ccc2c3c(cnc2c1)Sc1cnc2ccccc2c1N3CCN1CCNCC1 [Compound 2e, 14-(piperazinyloethyl)dichinotiazyny] | 26.5 ± 1.85 µM | – | – |
| 16.9 ± 1.73 µM | – | 27.9 ± 2.07 µM | 22.2 ± 3.83 µM | inactive; also recorded: no effect | – | – | – | – | – | – | CCN(CC)CCN1c2c(cnc3ccccc23)Sc2cnc3ccccc3c21 [Compound 2f] | 122 ± 12 µM | – | – |
| 13.1 ± 1.82 µM | – | 31.5 ± 2.36 µM | 24.5 ± 1.91 µM | inactive; also recorded: no effect | – | – | – | – | – | – | CN(C)CCCN1c2c(cnc3ccccc23)Sc2cnc3ccccc3c21 [Compound 2g] | – | no effect | – |
| < 8.6 µM | – | 84.9 ± 12.1 µM | 3.7 ± 0.91 µM | inactive; also recorded: no effect | 4.9 ± 1.97 µM | > 300 °C | – | – | – | – | N#Cc1ccc(N2c3c(cnc4ccccc34)Sc3cnc4ccccc4c32)cc1 [Compound 3a, 14-(4-cyanophenyl)diquinothiazine] | – | no effect | – |
| 17.1 ± 4.81 µM | – | 42.5 ± 16.5 µM | 14.6 ± 1.92 µM | inactive; also recorded: no effect | – | 292 to 293 °C | – | – | – | – | FC(F)(F)c1ccc(N2c3c(cnc4ccccc34)Sc3cnc4ccccc4c32)cc1 [Compound 3b, 14-(4-trifluoromethylphenyl)diquinothiazine] | 86.1 ± 11 µM | – | – |
| – | 2.7 ± 0.21 µM | 17.2 ± 1.02 µM | 2.7 µM | – | – | 262 to 263 °C | 1.6 ± 0.86 µM | 1.6 to 17.2 µM | – | – | CSc1ccc(N2c3c(cnc4ccccc34)Sc3cnc4ccccc4c32)cc1 [Compound 3c, 14-(methylthiophenyl)diquinothiazine] | 69 ± 4.89 µM | low cytotoxicity | strongest anticancer activity |
| 25.9 ± 4.87 µM | 24.7 ± 5.44 µM | 71.1 ± 14.7 µM | 26.2 ± 1.99 µM | – | – | 89 to 90 °C | – | – | – | – | CC(=O)NCCN1c2c(cnc3ccccc23)Sc2cnc3ccccc3c21 [Compound 5a, 14-acetylaminoethyldiquinothiazine] | 108 ± 9.83 µM | – | lowest anticancer activity |
| 17.7 ± 1.53 µM | 21.4 ± 4.02 µM | 56.5 ± 15.6 µM | 23.5 ± 1.97 µM | – | – | 171 to 172 °C | – | – | – | – | CC(=O)NCCCN1c2c(cnc3ccccc23)Sc2cnc3ccccc3c21 [Compound 5b, 14-acetylaminopropyldiquinothiazine] | 86.9 ± 9.67 µM | – | – |
| 26.5 ± 1.15 µM | 21.9 ± 4.31 µM | 49.3 ± 15.9 µM | 30.3 ± 1.57 µM | – | – | 68 to 69 °C | – | – | – | – | CC(=O)NCCCCN1c2c(cnc3ccccc23)Sc2cnc3ccccc3c21 [Compound 5c, 14-acetylaminobutyldiquinothiazine] | – | no effect | lowest anticancer activity |
| 20.2 ± 1.01 µM | – | 65.4 ± 14.1 µM | 36.9 ± 6.06 µM | inactive; also recorded: no effect | – | 229 to 230 °C | – | – | – | – | CS(=O)(=O)NCCN1c2c(cnc3ccccc23)Sc2cnc3ccccc3c21 [Compound 6a, 14-methanesulfonylaminoethyldiquinothiazine] | – | no effect | – |
| 15.6 ± 1.16 µM | – | 45.2 ± 17.2 µM | 25.9 ± 4.14 µM | inactive; also recorded: no effect | – | 199 to 200 °C | – | – | – | – | CS(=O)(=O)NCCCN1c2c(cnc3ccccc23)Sc2cnc3ccccc3c21 [Compound 6b, 14-methanesulfonylaminopropyldiquinothiazine] | – | no effect | – |
| 17.6 ± 1.85 µM | 21.6 ± 7.64 µM | 36.9 ± 16.8 µM | 13.4 ± 1.68 µM | – | – | 184 to 186 °C | – | – | – | – | CS(=O)(=O)NCCCCN1c2c(cnc3ccccc23)Sc2cnc3ccccc3c21 [Compound 6c, 14-methanesulfonylaminobutyldiquinothiazine] | – | no effect | – |
| 5.8 ± 0.63 µM | – | 18 ± 3.09 µM | 67.2 ± 9.64 µM | inactive; also recorded: no effect | – | – | – | – | – | – | c1ccc2c3c(cnc2c1)Sc1cnc2ccccc2c1N3 [Compound M0] | – | no effect | – |
| 8.6 ± 1.42 µM | 3.9 ± 0.76 µM | – | 0.6 ± 0.16 µM | – | – | – | – | – | 4.48 ± 0.21 µM | 44.8 µM | COc1cc([C@@H]2c3cc4c(cc3[C@@H](O[C@@H]3O[C@@H]5CO[C@@H](C)O[C@H]5[C@H](O)[C@H]3O)[C@H]3COC(=O)[C@H]23)OCO4)cc(OC)c1O [etoposide, reference compound] | 0.00311 ± 0.0002 µM | – | – |
